From patent US9839642B2, “Beta-tetrazolyl-propionic acids as metallo-beta-lactamase inhibitors” (priority 2014, dated 2017)
Like-named read-outs stand apart in the source and are kept apart here.

Key:
[1] = system: Klebsiella pneumoniae expressing VIM-1 (IHMA599644); test: Antibiotic potentiation activity: synergistic concentration (MITC95) with imipenem, growth by OD600; type: cell-based
In short: (§1)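 Colonies from overnight agar plates (35 °C) were suspended in saline and diluted 1:100 into 1.1× CAMHB. Inhibitor (final 200 μM to 0.195 μM) was combined with imipenem at 1 or 4 μg/ml, incubated 22–24 h at 35 °C, and absorbance read; MITC95 is the lowest inhibitor concentration giving 95% growth inhibition.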

[2] = system: Escherichia coli expressing NDM-1 (CLB30005); test: as above; type: cell-based
In short: as §1

[3] = system: Serratia marcescens expressing IMP-1 (CL5741); test: as above; type: cell-based
In short: as §1

[4] = target: VIM-1 (Pseudomonas aeruginosa, UniProt A0A0F7KYQ8); test: Enzyme activity: determination of IC50, fluorescence assay with CCF2-FA substrate; type: biochemical; details: CCF2-FA 1.25 μM, 2 hours at 25° C., read-out: VIM1 IC50
In short: (§2)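 Enzyme at 1 pM (NDM-1), 2 pM (IMP-1) or 30 pM (VIM-1) was incubated with inhibitor (20 μM to 0.00063 μM) and 1.25 μM CCF2-FA in 100 mM KH2PO4 pH 7, 0.005% Tween-20, 10 μM ZnSO4 for 2 hours at 25° C. Fluorescence was read at ex 405/em 460 nm; IC50 from 4-parameter fit.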

[5] = target: IMP-1 (Serratia marcescens, UniProt P52699); test: as above; type: biochemical; details: CCF2-FA 1.25 μM, 2 hours at 25° C., read-out: IMP1 IC50
Chain of IMP-1 (P52699 19-246, looked up, species assumed): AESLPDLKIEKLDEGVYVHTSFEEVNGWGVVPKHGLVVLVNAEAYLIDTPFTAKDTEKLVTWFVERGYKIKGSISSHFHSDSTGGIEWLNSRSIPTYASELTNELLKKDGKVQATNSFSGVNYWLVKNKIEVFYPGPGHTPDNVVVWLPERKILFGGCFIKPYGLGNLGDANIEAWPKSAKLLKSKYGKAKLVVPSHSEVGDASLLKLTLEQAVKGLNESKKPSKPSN
In short: as §2

[6] = target: NDM-1 (Klebsiella pneumoniae, UniProt C7C422); test: as above; type: biochemical; details: CCF2-FA 1.25 μM, 2 hours at 25° C., read-out: NDM1 IC50
Chain of NDM-1 (C7C422 29-270, looked up, species assumed): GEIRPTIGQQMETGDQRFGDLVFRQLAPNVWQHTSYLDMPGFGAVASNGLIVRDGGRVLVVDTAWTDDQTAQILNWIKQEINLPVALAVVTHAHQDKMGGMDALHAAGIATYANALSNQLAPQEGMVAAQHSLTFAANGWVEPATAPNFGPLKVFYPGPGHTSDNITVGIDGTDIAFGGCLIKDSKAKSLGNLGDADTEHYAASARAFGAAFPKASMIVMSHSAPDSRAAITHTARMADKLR
In short: as §2

[7] = 95% inhibition of bacterial growth, strain IHMA599644
[8] = 95% inhibition of bacterial growth, strain CLB30005
[9] = 95% inhibition of bacterial growth, strain CL5741
[10] = K. pneumoniae IHMA599644 (VIM-1), 95% inhibition of growth
[11] = E. coli CLB30005 (NDM-1), 95% inhibition of growth
[12] = S. marcescens CL5741 (IMP-1), 95% inhibition of growth

SMILES | VIM1 KP599644 MITC95 [1, 7] [µM] | NDM1 EC30005 MITC95 [2, 8] [µM] | IMP1 SM5741 MITC95 [3, 9] [µM] | IC50 ([4]; enzyme 30 pM) [nM] | IC50 ([5]; enzyme 2 pM) [nM] | IC50 ([6]; enzyme 1 pM) [nM] | VIM1 KP599644 MITC95 [1, 10] [µM] | NDM1 EC30005 MITC95 [2, 11] [µM] | IMP1 SM5741 MITC95 [3, 12] [µM] | IC50 ([4]; VIM-1 enzyme 30 pM) [nM] | IC50 ([5]; IMP-1 enzyme 2 pM) [nM] | IC50 ([6]; NDM-1 enzyme 1 pM) [nM]
CCC[C@H](C(=O)O)[C@H](Cc1ccc(-c2ccc3nncn3c2)cc1)c1nnn[nH]1 [Example 239, (2S)-2-[(1S)-1-(1H-tetrazol-5-yl)-2-(4-[1,2,4]triazolo[4,3-a]pyridin-6-ylphenyl)ethyl]pentanoic acid] | 75 | 38 | 38 | 1.7 | 190 | 20 | – | – | – | – | – | –
CCC[C@H](C(=O)O)[C@H](Cc1ccc(-c2ccc(CN(C)C)cc2)cc1)c1nnn[nH]1 [Example 240, (2S)-2-[(1S)-2-{4′-[(dimethylamino)methyl]biphenyl-4-yl}-1-(1H-tetrazol-5-yl)ethyl]pentanoic acid] | 125 | 25 | 7.8 | 6.5 | 75 | 100 | – | – | – | – | – | –
CCC[C@H](C(=O)O)[C@H](Cc1ccc(-c2ccc3ncnn3c2)cc1)c1nnn[nH]1 [Example 241, (2S)-2-[(1S)-1-(1H-tetrazol-5-yl)-2-(4-[1,2,4]triazolo[1,5-a]pyridin-6-ylphenyl)ethyl]pentanoic acid] | 38 | 75 | 9.4 | 0.64 | 58 | 13 | – | – | – | – | – | –
CCC[C@H](C(=O)O)[C@H](Cc1ccc(-c2cnc(N(C)S(C)(=O)=O)nc2)cc1)c1nnn[nH]1 [Example 242, (2S)-2-[(1S)-2-(4-{2-[methyl(methyl-sulfonyl)amino]pyrimidin-5-yl}phenyl)-1-(1H-tetrazol-5-yl)ethyl]pentanoic acid] | 100 | 38 | 12.5 | 1.6 | 70 | 9.3 | – | – | – | – | – | –
CCC[C@H](C(=O)O)[C@H](Cc1ccc(C2=CCCN(C)C2)cc1)c1nnn[nH]1 [Example 243, (2S)-2-[(1S)-2-[4-(1-methyl-1,2,5,6-tetrahydropyridin-3-yl)phenyl]-1-(1H-tetrazol-5-yl)ethyl]pentanoic acid] | 25 | 18.8 | 25 | 3.8 | 500 | 400 | – | – | – | – | – | –
CCC[C@H](C(=O)O)[C@H](Cc1ccc(-c2cnc(C)c(C)n2)cc1)c1nnn[nH]1 [Example 244, (2S)-2-[(1S)-2-[4-(5,6-dimethylpyrazin-2-yl)phenyl]-1-(1H-tetrazol-5-yl)ethyl]pentanoic acid] | – | – | – | – | – | – | 38 | 9.4 | 25 | 4.8 | 250 | 66
CCC[C@H](C(=O)O)[C@H](Cc1ccc(-c2ccc3c(c2)CNC3)cc1)c1nnn[nH]1 [Example 245, (2S)-2-[(1S)-2-[4-(2,3-dihydro-1H-isoindol-5-yl)phenyl]-1-(1H-tetrazol-5-yl)ethyl]pentanoic acid] | – | – | – | – | – | – | 25 | 9.4 | 6.2 | 3.7 | 85 | 57
CCC[C@H](C(=O)O)[C@H](Cc1ccc(-c2ccc(-c3nnn[nH]3)cc2)cc1)c1nnn[nH]1 [Example 246, (2S)-2-{(1S)-1-(1H-tetrazol-5-yl)-2-[4′-(1H-tetrazol-5-yl)biphenyl-4-yl]ethyl}pentanoic acid] | – | – | – | – | – | – | 100 | 38 | 6.2 | 2.2 | 9.7 | 1.1
CCC[C@H](C(=O)O)[C@H](Cc1ccc(-c2cnc3[nH]c(=O)[nH]c3c2)cc1)c1nnn[nH]1 [Example 247, (2S)-2-[(1S)-2-[4-(2-oxo-2,3-dihydro-1H-imidazo[4,5-b]pyridin-6-yl)phenyl]-1-(1H-tetrazol-5-yl)ethyl]pentanoic acid] | – | – | – | – | – | – | 100 | 31 | 16 | 0.64 | 92 | 13
